Molecular target: T1, collagen receptor glycoprotein VI (GP VI) (Homo sapiens, UniProt Q9HCN6)
T1 construct: gene GP6; native full-length receptor, captured from total human platelet lysate by immobilised anti-GP VI mAb on SPR chip; described as 60-65 kDa type I transmembrane glycoprotein
T1 sequence (Q9HCN6 21-339): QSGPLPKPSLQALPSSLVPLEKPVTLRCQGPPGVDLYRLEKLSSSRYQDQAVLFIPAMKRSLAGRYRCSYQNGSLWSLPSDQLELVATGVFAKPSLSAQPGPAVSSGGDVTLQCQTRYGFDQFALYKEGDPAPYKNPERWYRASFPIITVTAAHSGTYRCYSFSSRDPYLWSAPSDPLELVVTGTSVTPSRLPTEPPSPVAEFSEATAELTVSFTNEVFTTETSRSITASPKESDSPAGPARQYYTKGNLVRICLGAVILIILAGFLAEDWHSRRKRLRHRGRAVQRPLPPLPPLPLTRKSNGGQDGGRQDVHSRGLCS
Assay: SPR (ProteOn XPR36), GP VI captured by immobilised anti-GP VI mAb, kinetic […] Langmuir fit
Type: binding
Conditions: PBS with 0.005% Tween 20, pH 7.4, 25 °C; native GP VI captured from platelet lysate; analyte only 10 and 100 μM

In the case of `C=CCc1ccc(O)c(-c2ccc(O)c(CC=C)c2)c1` [Honokiol], the Kd is reported as 289 µM.

Source: publication PMC5213647, “Honokiol as a specific collagen receptor glycoprotein VI antagonist on human platelets: Functional ex vivo and in vivo studies” (Scientific Reports, 2017)
